Marks after values point to notes of the source that are not given here.
Experiments:
[1] = tested on: Human HaCat keratinocytes; experiment: Stimulation of keratinocyte proliferation (Hoescht DNA labeling); assay type: cell-based; conditions: 14 days; for Keratinocyte proliferation vs. control cell proliferation: n = 3
Experimental: The stimulation of cell growth can be readily measured by uptake of a fluorescent probe that intercalates between DNA bases (Hoescht method). There is a proportional relationship between the quantity of fluorescent DNA taken up and the number of cells. […] Cells and products were incubated during 14 days (37° C./5% CO2), the mediums being renewed at regular intervals. Then lawns were rinsed and broke before being labeled by means of the colouring agent inserting of the DNA HOESCHT 33258. The intensity of the labeling is proportional to the quantity of DNA of the cellular samples. A curve of calibration allows to correlate the intensity of the labeling to the number of cells.

[2] = tested on: filaggrin; experiment: Filaggrin synthesis by keratinocytes (fluorescence-image analysis); assay type: cell-based, human; conditions: for Filaggrin synthesis, Fluorescence: Table 3, HaCat; for Filaggrin synthesis, Fluorescence / Filaggrin synthesis, Fluorescence, result per 106 cells: calcium-deficient medium; for Filaggrin synthesis, Fluorescence / Filaggrin synthesis, Fluorescence, result per 106 cells / increase in filaggrin synthesis on the control value: 14 days; for Filaggrin synthesis, Fluorescence, result per 106 cells: Table 2, HaCat
Experimental: HaCat cells were cultured to confluence, in a deficient medium in calcium, in the presence or absence of hydroxymethionine-Ca for 14 days. The culture period was rather long in order to enable the keratinocytes to pursue differentiation up to a rather late stage in order to detect the emergence of filaggrin. Quantification was conducted by fluorescence-image analysis after labeling filaggrin with a specific probe (polyclonal antibody, Santa-Cruz). […]

[3] = tested on: keratin K10; experiment: Synthesis of keratin 10 by keratinocytes (fluorescence image analysis); assay type: cell-based, human; conditions: 14 days; for Synthesis of keratin 10, Fluorescence: HaCat, calcium-poor medium
Experimental: HaCat cells were cultured in the presence or absence of hydroxymethionine-Ca, 3-aminopropanesulfonic Acid alone, and both compounds in a calcium-poor culture medium for 14 days. The incubation time was rather long to enable the keratinocytes to pursue differentiation up to a late stage, thus enabling detection of the emergence of keratin K10. Quantification was conducted by fluorescence image analysis using 1 specific fluorescent probe (anti-keratin monoclonal antibody (Monosan) for keratin K10).

[4] = tested on: Keratinocytes; experiment: Osmolar protection: cell vitality by MTT after hyperosmotic stress; assay type: cell-based; conditions: D-Sorbitol 200 mM, 0.06%
Experimental: Keratinocytes were cultured in an appropriate culture medium. Then, cells were exposed to hyperosmolar shock induced by D-Sorbitol 200 mM. […] The osmoprotector effect of the products is estimated by quantifying the cellular survival. MTT Method is used: the measure of the survival is made at T0, T24 h and T48 h after the beginning of the stress. An analysis of the variances is realized on the data. In case of identity of the variances, a test of Student for matched series is then realized on the averages.

[5] = tested on: Normal Human Keratinocyte (KHN) cells; experiment: Genes expression profile by DNA array on human keratinocyte culture; assay type: cell-based
Experimental: The genes expression profile modulated by hydroxymethionine was studied on human keratinocyte culture, cultured in the presence or absence of hydroxymethionine-Ca by DNA array studies allowing the detection of the main genes.
Normal Human Keratinocyte (KHN) cells were cultured to confluence before receiving 5×10E-3% hydroxymethionine or 5×10E-2% hydroxymethionine diluted in the culture medium. The negative controls are medium without hydroxymethionine. The KHN were incubated (37° C./5% CO2) at different times before that the culture was stopped to allow the extraction of the total RNA. Then, the quantitation of the mRNA of interest is allowed by the use of ADN biochip and quantified by means of software of interpretations of the fluorescent signals recorded by the sensors.

[6] = tested on: HaCat cells; experiment: Intracellular lipid synthesis (red oil staining of lipid vesicles); assay type: cell-based, human; conditions: 14 days; for Formation of lipid vesicles, Red-oil staining, result per 106 cells: HaCat
Experimental: The intracellular lipid vesicles characterize a late phase of differentiation. HaCat cells were cultured in the presence or absence of hydroxymethionine-Ca for 14 days. The incubation duration was rather long in order to enable the keratinocytes to pursue differentiation up to a relatively late stage.
Quantification was conducted by image analysis after red oil staining of the lipid vesicles.

[7] = tested on: transglutaminase; experiment: Transglutaminase mRNA by quantitative RT-PCR; assay type: cell-based, human; conditions: 8 days; for Transglutaminase mRNA, Ct, result per 106 cells: HaCat
Experimental: HaCat cells were cultured in the presence or absence of hydroxymethionine-Ca for 8 days. The quantitative RT-PCR method used on the mRNA for transglutaminase is sensitive and yielded results as of 8 days of culture. Quantification consisted in analysis of the cycle threshold (Ct) parameter, which reflects the amplification power used to obtain a detectable signal.
Amplification is exponantial and of order 1.7 (recopying effectiveness for each cycle).

[8] = concentration 0.02% (mix: each)
[9] = concentration 0.05% (mix: each)

SMILES: NCCCS(=O)(=O)O [3-aminopropanesulfonic acid]
- effect on cell proliferation ([1]; 0.02% and 0.05%): no stimulant effect
- Keratinocyte proliferation vs. control cell proliferation [1, 8]: 0%
- Keratinocyte proliferation vs. control cell proliferation [1, 9]: 0%
- Filaggrin synthesis, Change (%) vs control ([2]; Table 3, 14 days, 0.02%): 0.8 X
- Filaggrin synthesis, Change (%) vs control ([2]; Table 3, 14 days, 0.05%): X 1
- Filaggrin synthesis, Change (%) vs control ([2]; Table 3, 14 days, 0.06%): 0.8 X
- Filaggrin synthesis, Fluorescence ([2]; 0.02%): 1.2 +/− 0.6 arbitrary unit
- Filaggrin synthesis, Fluorescence ([2]; 0.05%): 1.5 +/− 0.7 arbitrary unit
- Filaggrin synthesis, Fluorescence ([2]; 0.06%): 1.2 +/− 0.6 arbitrary unit
- differentiating effect, keratin 10 [3]: devoid of differentiating effect
- Synthesis of keratin 10, Fluorescence ([3]; 0.02%): 0.1 +/− 0.05 arbitrary unit
- Synthesis of keratin 10, Fluorescence ([3]; 0.05%): <0.1 arbitrary unit
- Synthesis of keratin 10, Fluorescence ([3]; 0.06%): 0.1 +/− 0.06 arbitrary unit
- Variation of the number of cells with regard to the control after a hyperosmotic stress (MTT) ([4]; T0): +8%
- Variation of the number of cells with regard to the control after a hyperosmotic stress (MTT) ([4]; T24 h): +180%
- Variation of the number of cells with regard to the control after a hyperosmotic stress (MTT) ([4]; T48 h): +247%

SMILES: CSCCC(O)C(=O)O (centres unmarked) [Hydroxymethionine-Ca (AHMC), 2-hydroxy-4-(thiomethyl)butanoic acid]
- properties shown by the gene expression study [5]: proliferative, pro-differentiation and proteinogenic properties but also DNA repairing properties
- activation of the gene HK2 involved in the proliferation ([5]; 5×10E-3% or 5×10E-2%): marked activation
- activation of the gene endothelin 1 involved in the cellular differentiation ([5]; 5×10E-3% or 5×10E-2%): marked activation
- activity of the gene CACNA1C (subunit alpha 1 of the voltage-dependent calcium channel) ([5]; 5×10E-3% or 5×10E-2%): increased activity
- activity of the gene for RYR (ryanodine receptor) ([5]; 5×10E-3% or 5×10E-2%): increased activity
- differentiation activities (ornithine decarboxylase, keratins, involucrin, intermediate filaments, claudin genes) ([5]; 5×10E-3% or 5×10E-2%): strongly expressed
- gene TGD (thymidine DNA glycolase) ([5]; 5×10E-3% or 5×10E-2%): activated
- Keratinocyte proliferation vs. control cell proliferation [1, 8]: 223%
- Keratinocyte proliferation vs. control cell proliferation [1, 9]: 170%
- Filaggrin synthesis, Change (%) vs control ([2]; Table 2, 14 days, 0.015%): +379%
- Filaggrin synthesis, Change (%) vs control ([2]; Table 2, 14 days, 0.03%): +1072%
- Filaggrin synthesis, Change (%) vs control ([2]; Table 2, 14 days, 0.06%): +943%
- Filaggrin synthesis, Fluorescence, result per 106 cells ([2]; 0.015%): 1.9 ± 1.4 arbitrary unit
- Filaggrin synthesis, Fluorescence, result per 106 cells ([2]; 0.03%): 4.6 ± 3.1 arbitrary unit
- Filaggrin synthesis, Fluorescence, result per 106 cells ([2]; 0.06%): 4.1 ± 3.5 arbitrary unit
- Filaggrin synthesis, Change (%) vs control ([2]; Table 3, 14 days, 0.02%): 3.3 X
- Filaggrin synthesis, Change (%) vs control ([2]; Table 3, 14 days, 0.05%): 3.4 X
- Filaggrin synthesis, Change (%) vs control ([2]; Table 3, 14 days, 0.06%): 2.7 X
- Filaggrin synthesis, Fluorescence ([2]; 0.02%): 5.0 arbitrary unit
- Filaggrin synthesis, Fluorescence ([2]; 0.05%): 5.2 arbitrary unit
- Filaggrin synthesis, Fluorescence ([2]; 0.06%): 4.2 arbitrary unit
- increase in filaggrin synthesis on the control value ([2]; concentration equivalent to 0.06%): ≤ 10 fold
- increase in filaggrin synthesis on the control value ([2]; lowest concentration): 3.7 fold
- production of filaggrine ([2]; used concentrations, 14 days after contact): strongly stimulates
- Synthesis of keratin 10, Change vs control ([3]; 0.02%): X 45
- Synthesis of keratin 10, Change vs control ([3]; 0.05%): X 57
- Synthesis of keratin 10, Change vs control ([3]; 0.06%): X 44
- Synthesis of keratin 10, Fluorescence ([3]; 0.02%): 4.0 arbitrary unit
- Synthesis of keratin 10, Fluorescence ([3]; 0.05%): 5.1 +/− 1.3 arbitrary unit
- Synthesis of keratin 10, Fluorescence ([3]; 0.06%): 3.9 +/− 1.7 arbitrary unit
- Formation of lipid vesicles, Change (%) vs control ([6]; 0.015%): +77%
- Formation of lipid vesicles, Change (%) vs control ([6]; 0.03%): +58%
- Formation of lipid vesicles, Change (%) vs control ([6]; 0.06%): +66%
- Formation of lipid vesicles, Red-oil staining, result per 106 cells ([6]; 0.015%): 2.8 ± 0.3 arbitrary unit
- Formation of lipid vesicles, Red-oil staining, result per 106 cells ([6]; 0.03%): 2.5 ± 0.7 arbitrary unit
- Formation of lipid vesicles, Red-oil staining, result per 106 cells ([6]; 0.06%): 2.6 ± 0.6 arbitrary unit
- Transglutaminase mRNA, Change (%) vs control ([7]; 0.015%): +322%*
- Transglutaminase mRNA, Change (%) vs control ([7]; 0.03%): +661%*
- Transglutaminase mRNA, Change (%) vs control ([7]; 0.06%): +814%*
- increase in mRNA coding for transglutaminase ([7]; dose-dependent): 8 fold
- Transglutaminase mRNA, Ct, result per 106 cells ([7]; 0.015%): 23.7 ± 0.3 amplification unit
- Transglutaminase mRNA, Ct, result per 106 cells ([7]; 0.03%): 22.9 ± 0.1 amplification unit
- Transglutaminase mRNA, Ct, result per 106 cells ([7]; 0.06%): 22.5 ± 0.3 amplification unit
- Variation of the number of cells with regard to the control after a hyperosmotic stress (MTT) ([4]; T0): +54%
- Variation of the number of cells with regard to the control after a hyperosmotic stress (MTT) ([4]; T24 h): +108%
- Variation of the number of cells with regard to the control after a hyperosmotic stress (MTT) ([4]; T48 h): +112%
